Assay results from US20160235752A1, “COMPOSITIONS, METHODS OF USE, AND METHODS OF TREATMENT” (THE UNIVERSITY OF NEW ORLEANS, priority 2013, published 2016).
≈ marks a conversion by molar mass, not a printed value.

Tests used:
Type in all cases: cell-based
[1] = tested on: Candida glabrata (ATCC no. 48435); experiment: MIC determination by broth microdilution (NCCLS), visual scoring; settings: for MIC80: Nakaseomyces glabratus, ATCC48435, read-out: MIC80 C. glabrata
[2] = tested on: Candida albicans (ATCC no. 10231); experiment: as above; settings: for MIC80: Candida albicans, ATCC10231, read-out: MIC80 C. albicans
Procedure, shortened: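 NCCLS broth microdilution in RPMI 1640 with 10 mM HEPES, final compound 0.5–128 μg/mL, DMSO ≤1%. Inoculum from 0.5 McFarland stock diluted 1:50; incubated 35 °C for 48–72 h. MIC scored visually as lowest concentration giving ~80% growth reduction versus drug-free wells.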

[3] = tested on: Candida albicans (ATCC no. 10231) and Candida glabrata (ATCC no 48435); experiment: Antifungal activity, text statements that do not say which fungus
Protocol: The antifungal activity of the 2,4,6-pyrimidinetrione analogs shown in Schemes 2-6 were evaluated in vitro using Candida albicans (ATCC no. 10231) and Candida glabrata (ATCC no 48435). All assays were done in accordance with NCCLS reference documents^29. The results of these screenings are summarized in Tables 1-9 as the minimal inhibitory concentrations that inhibited more than 80% fungal growth as compared to the positive controls in 1% DMSO and RPMI media. All MIC screens were done using a visual scoring method as opposed to spectroscopic methods of analysis, due to the physical properties of many of the compounds altering their absorbance spectra relative to the positive, negative and drug controls.
None of the compounds tested over the course of these studies were soluble in water and DMSO was used to dilute each compound tested. Master stock concentrations of all tested compounds were prepared to ensure that the maximum final concentration of DMSO was 1% or less. Subsequent 2-fold serial dilutions were made using sterile water to a final concentration of 1280-5.00 μg/ml. A final 10-fold dilution of each drug was made by aliquotting 0.1 mL of each drug dilution into 0.9 mL of fungal suspension in RPMI 1640 media with 10 mM HEPES buffer added (see methodology below), giving final concentrations tested in the range of 128-0.5 μg/ml.
Antifungal susceptibility studies and minimal inhibitory concentrations (MIC) values for Candida albicans (ATCC no. 10231) and Candida glabrata (ATCC no. 48435) were determined by the broth microdilution technique in accordance with NCCLS reference documents. Microdilution panels ranged from 0.5 to 128 μg/mL. All organisms were subcultured on Sabouraud agar and passaged to ensure purity and viability. The initiating inocula were prepared by picking 5-7 isolated colonies ˜1 mm in diameter from freshly prepared YM agar plates. […] Growth was scored visually. […]

[4] = Table 7, Phenylhydrazones of 5-Acylpyrimidinetriones
[5] = Table 5, Schiff Bases of 5-acylpyrimidinetriones
[6] = Table 3, 5-Alkylated Pyrimidinetriones
[7] = Table 4, 5,5-Dialkylated Pyrimidinetriones
[8] = Table 2, 5-Arylidene-2,4,6-pyrimidinetriones
[9] = Table 1, 5-Acyl-2,4,6-pyrimidinetriones, >80% growth inhibition, RPMI, 1% DMSO

Structure (SMILES): CC(=NNc1ccc([N+](=O)[O-])cc1)C1C(=O)NC(=O)N(c2ccccc2)C1=O (centres unmarked) [BA28]
- MIC80 C. glabrata [1, 4]: 16 µg/mL (≈ 42 µM)
- MIC80 C. albicans [2, 4]: 31.5 µg/mL (≈ 82.6 µM)
- inhibition of fungal growth (in words) [3]: greatly reduced inhibition

Structure (SMILES): CN1C(=O)C(C=Nc2ccccc2)C(=O)N(C)C1=O [BA90]
- MIC80 C. glabrata [1, 5]: — (none of the 5-acyl-2,4,6-pyrimidinetriones, 5-alkylated pyrimidinetriones or the 5,5-dialkylated pyrimidinetriones showed antifungal activity through 125 μg/mL)
- MIC80 C. albicans [2, 5]: — (none of the 5-acyl-2,4,6-pyrimidinetriones, 5-alkylated pyrimidinetriones or the 5,5-dialkylated pyrimidinetriones showed antifungal activity through 125 μg/mL)

Structure (SMILES): C/C(=N\CCCCCC(=O)O)C1C(=O)NC(=O)NC1=O [BA29, 6-{(E)-[1-(2,4,6-trioxohexahydropyrimidin-5-yl)ethylidene]amino}hexanoic acid]
- MIC80 [1]: > 125 µg/mL
- MIC80 [2]: > 125 µg/mL

Structure (SMILES): O=C1NC(=O)C(CCCC2CCCCC2)C(=O)N1 [BA63]
- MIC80 C. glabrata [1, 6]: — (none of the 5-acyl-2,4,6-pyrimidinetriones, 5-alkylated pyrimidinetriones or the 5,5-dialkylated pyrimidinetriones showed antifungal activity through 125 μg/mL)
- MIC80 C. albicans [2, 6]: — (none of the 5-acyl-2,4,6-pyrimidinetriones, 5-alkylated pyrimidinetriones or the 5,5-dialkylated pyrimidinetriones showed antifungal activity through 125 μg/mL)

Structure (SMILES): CN1C(=O)C(C=Nc2cccc(O)c2)C(=O)N(C)C1=O [BA95]
- MIC80 C. glabrata [1, 5]: — (none of the 5-acyl-2,4,6-pyrimidinetriones, 5-alkylated pyrimidinetriones or the 5,5-dialkylated pyrimidinetriones showed antifungal activity through 125 μg/mL)
- MIC80 C. albicans [2, 5]: — (none of the 5-acyl-2,4,6-pyrimidinetriones, 5-alkylated pyrimidinetriones or the 5,5-dialkylated pyrimidinetriones showed antifungal activity through 125 μg/mL)
- inhibition of fungal growth (in words) [3]: inactive

Structure (SMILES): O=C1NC(=O)C(Cc2ccccc2)(Cc2ccccc2)C(=O)N1 [BA70]
- MIC80 C. glabrata [1, 7]: — (none of the 5-acyl-2,4,6-pyrimidinetriones, 5-alkylated pyrimidinetriones or the 5,5-dialkylated pyrimidinetriones showed antifungal activity through 125 μg/mL)
- MIC80 C. albicans [2, 7]: — (none of the 5-acyl-2,4,6-pyrimidinetriones, 5-alkylated pyrimidinetriones or the 5,5-dialkylated pyrimidinetriones showed antifungal activity through 125 μg/mL)

Structure (SMILES): O=C1NC(=O)C(=Cc2ccco2)C(=O)N1 [BA56]
- MIC80 C. glabrata [1, 8]: — (none of the 5-acyl-2,4,6-pyrimidinetriones, 5-alkylated pyrimidinetriones or the 5,5-dialkylated pyrimidinetriones showed antifungal activity through 125 μg/mL)
- MIC80 C. albicans [2, 8]: — (none of the 5-acyl-2,4,6-pyrimidinetriones, 5-alkylated pyrimidinetriones or the 5,5-dialkylated pyrimidinetriones showed antifungal activity through 125 μg/mL)

Structure (SMILES): CN1C(=O)C(C=Nc2ccc(O)cc2)C(=O)N(C)C1=O [BA79]
- MIC80 C. glabrata [1, 5]: — (none of the 5-acyl-2,4,6-pyrimidinetriones, 5-alkylated pyrimidinetriones or the 5,5-dialkylated pyrimidinetriones showed antifungal activity through 125 μg/mL)
- MIC80 C. albicans [2, 5]: — (none of the 5-acyl-2,4,6-pyrimidinetriones, 5-alkylated pyrimidinetriones or the 5,5-dialkylated pyrimidinetriones showed antifungal activity through 125 μg/mL)

Structure (SMILES): O=C1NC(=O)C(C(=NNc2ccc(C(=O)O)cc2)C2C(=O)NC(=O)NC2=O)C(=O)N1 [BA38]
- MIC80 C. glabrata [1, 4]: 125 µg/mL (≈ 300 µM)
- MIC80 C. albicans [2, 4]: — (none of the 5-acyl-2,4,6-pyrimidinetriones, 5-alkylated pyrimidinetriones or the 5,5-dialkylated pyrimidinetriones showed antifungal activity through 125 μg/mL)

Structure (SMILES): CN1C(=O)C(CCCc2ccccc2)C(=O)N(C)C1=O [BA67]
- MIC80 C. glabrata [1, 6]: — (none of the 5-acyl-2,4,6-pyrimidinetriones, 5-alkylated pyrimidinetriones or the 5,5-dialkylated pyrimidinetriones showed antifungal activity through 125 μg/mL)
- MIC80 C. albicans [2, 6]: — (none of the 5-acyl-2,4,6-pyrimidinetriones, 5-alkylated pyrimidinetriones or the 5,5-dialkylated pyrimidinetriones showed antifungal activity through 125 μg/mL)

Structure (SMILES): CN1C(=O)C(C(=NNc2ccc([N+](=O)[O-])cc2[N+](=O)[O-])c2ccc(O)cc2)C(=O)N(C)C1=O [BA34]
- MIC80 C. glabrata [1, 4]: — (none of the 5-acyl-2,4,6-pyrimidinetriones, 5-alkylated pyrimidinetriones or the 5,5-dialkylated pyrimidinetriones showed antifungal activity through 125 μg/mL)
- MIC80 C. albicans [2, 4]: — (none of the 5-acyl-2,4,6-pyrimidinetriones, 5-alkylated pyrimidinetriones or the 5,5-dialkylated pyrimidinetriones showed antifungal activity through 125 μg/mL)

Structure (SMILES): CCCCCCCC1C(=O)NC(=O)NC1=O [BA60]
- MIC80 C. glabrata [1, 6]: — (none of the 5-acyl-2,4,6-pyrimidinetriones, 5-alkylated pyrimidinetriones or the 5,5-dialkylated pyrimidinetriones showed antifungal activity through 125 μg/mL)
- MIC80 C. albicans [2, 6]: — (none of the 5-acyl-2,4,6-pyrimidinetriones, 5-alkylated pyrimidinetriones or the 5,5-dialkylated pyrimidinetriones showed antifungal activity through 125 μg/mL)

Structure (SMILES): O=C1NC(=O)N(c2ccccc2)C(=O)C1=Cc1ccc(O)cc1 [BA46]
- MIC80 C. glabrata [1, 8]: — (none of the 5-acyl-2,4,6-pyrimidinetriones, 5-alkylated pyrimidinetriones or the 5,5-dialkylated pyrimidinetriones showed antifungal activity through 125 μg/mL)
- MIC80 C. albicans [2, 8]: — (none of the 5-acyl-2,4,6-pyrimidinetriones, 5-alkylated pyrimidinetriones or the 5,5-dialkylated pyrimidinetriones showed antifungal activity through 125 μg/mL)

Structure (SMILES): CN1C(=O)C(C=O)C(=O)N(C)C1=O [BA19, 1,3-dimethyl-2,4,6-trioxohexahydropyrimidine-5-carbaldehyde]
- MIC80 [1]: > 125 µg/mL
- MIC80 [2]: > 125 µg/mL

Structure (SMILES): CC(=Nc1ccccc1)C1C(=O)N(C)C(=O)N(C)C1=O [BA91]
- MIC80 C. glabrata [1, 5]: — (none of the 5-acyl-2,4,6-pyrimidinetriones, 5-alkylated pyrimidinetriones or the 5,5-dialkylated pyrimidinetriones showed antifungal activity through 125 μg/mL)
- MIC80 C. albicans [2, 5]: — (none of the 5-acyl-2,4,6-pyrimidinetriones, 5-alkylated pyrimidinetriones or the 5,5-dialkylated pyrimidinetriones showed antifungal activity through 125 μg/mL)

Structure (SMILES): O=C1NC(=O)C(CCCc2ccccc2)C(=O)N1 [BA66]
- MIC80 C. glabrata [1, 6]: — (none of the 5-acyl-2,4,6-pyrimidinetriones, 5-alkylated pyrimidinetriones or the 5,5-dialkylated pyrimidinetriones showed antifungal activity through 125 μg/mL)
- MIC80 C. albicans [2, 6]: — (none of the 5-acyl-2,4,6-pyrimidinetriones, 5-alkylated pyrimidinetriones or the 5,5-dialkylated pyrimidinetriones showed antifungal activity through 125 μg/mL)

Structure (SMILES): CN1C(=O)C(C=Nc2ccncc2)C(=O)N(C)C1=O [BA82]
- MIC80 C. glabrata [1, 5]: — (none of the 5-acyl-2,4,6-pyrimidinetriones, 5-alkylated pyrimidinetriones or the 5,5-dialkylated pyrimidinetriones showed antifungal activity through 125 μg/mL)
- MIC80 C. albicans [2, 5]: — (none of the 5-acyl-2,4,6-pyrimidinetriones, 5-alkylated pyrimidinetriones or the 5,5-dialkylated pyrimidinetriones showed antifungal activity through 125 μg/mL)

Structure (SMILES): CN(C)c1ccc(CC2(CCCc3ccccc3)C(=O)NC(=O)NC2=O)cc1 [BA72]
- MIC80 C. glabrata [1, 7]: — (none of the 5-acyl-2,4,6-pyrimidinetriones, 5-alkylated pyrimidinetriones or the 5,5-dialkylated pyrimidinetriones showed antifungal activity through 125 μg/mL)
- MIC80 C. albicans [2, 7]: — (none of the 5-acyl-2,4,6-pyrimidinetriones, 5-alkylated pyrimidinetriones or the 5,5-dialkylated pyrimidinetriones showed antifungal activity through 125 μg/mL)

Structure (SMILES): O=C1NC(=O)C(C(=O)c2cccc([N+](=O)[O-])c2)C(=O)N1 [BA4]
- MIC80 C. glabrata [1, 9]: — (none of the 5-acyl-2,4,6-pyrimidinetriones, 5-alkylated pyrimidinetriones or the 5,5-dialkylated pyrimidinetriones showed antifungal activity through 125 μg/mL)
- MIC80 C. albicans [2, 9]: — (none of the 5-acyl-2,4,6-pyrimidinetriones, 5-alkylated pyrimidinetriones or the 5,5-dialkylated pyrimidinetriones showed antifungal activity through 125 μg/mL)

Structure (SMILES): O=C1NC(=O)C(=Cc2ccc(O)cc2)C(=O)N1 [BA44]
- MIC80 C. glabrata [1, 8]: — (none of the 5-acyl-2,4,6-pyrimidinetriones, 5-alkylated pyrimidinetriones or the 5,5-dialkylated pyrimidinetriones showed antifungal activity through 125 μg/mL)
- MIC80 C. albicans [2, 8]: — (none of the 5-acyl-2,4,6-pyrimidinetriones, 5-alkylated pyrimidinetriones or the 5,5-dialkylated pyrimidinetriones showed antifungal activity through 125 μg/mL)

Structure (SMILES): CN1C(=O)C(C(=O)c2ccc(O)cc2)C(=O)N(C)C1=O [BA11]
- MIC80 C. glabrata [1, 9]: — (none of the 5-acyl-2,4,6-pyrimidinetriones, 5-alkylated pyrimidinetriones or the 5,5-dialkylated pyrimidinetriones showed antifungal activity through 125 μg/mL)
- MIC80 C. albicans [2, 9]: — (none of the 5-acyl-2,4,6-pyrimidinetriones, 5-alkylated pyrimidinetriones or the 5,5-dialkylated pyrimidinetriones showed antifungal activity through 125 μg/mL)
